Peptide text beside a SMILES is read from it.

The target of series [1] is T1, rhACE2 (Homo sapiens, UniProt Q9BYF1).
T1 construct: purchased R&D systems
Set-up: method as in PMID 26931059. Conditions: 20 amino acid peptide from Bothrops asper myotoxin; cited from earlier work.

In series [2] the target is T1, rhACE2. The series is described as follows: ACE2-dependent breakdown of angiotensin II and formation of angiotensin 1-7 by LCMS. The settings on record: 2A 1.7 μM, n=4. In kind it is biochemical. The protocol:
The effect of 2A on ACE2-mediated cleavage of angiotensin II was assessed using LCMS. rhACE2 (0.1 ng/μL) was incubated with 2A (1.7 μM) for 1 h at 37 °C. Angiotensin II (0.02 μg/μL) was then added. Aliquots of equal volumes were collected at T = 0, 3, 6 and 24-h. Aliquots were immediately acidified with trifluoroacetic acid (0.1% final). Samples were snap frozen in dry ice and lyophilized for analysis by LCMS.
Prior to loading, samples were reconstituted in 100 μL loading buffer. Samples were analysed using a quadrupole TOF mass spectrometer (MicroTOFq, Bruker Daltonics, Bremen, Germany) coupled online with a 1200 series nano HPLC (Agilent Technologies). Samples were loaded onto a zorbax 300SB reversed-phase trap column equilibrated with 95% buffer A (0.1% formic acid). The flow rate was set to 10 μL/min. The components were eluted over a 10 min gradient to 70% buffer B (80% acetonitrile, 0.1% formic acid) and peptides were separated on zorbax 300SB-C18 nano column (75 μm × 15 cm, 3.5 μm). The eluant was nebulised and ionised using the Bruker nano-ESI source with a capillary voltage of 4500 V, dry gas at 180° C, flow rate set at […] and nebuliser gas pressure at 300 mbar. The mass spectrometry acquisition was in selected ion monitoring mode after selected ion extraction of the mass spectrometry spectra. […]

Series [3] can be described thus: Stability of 2A in cell culture (HEK293), LCMS. The class given is in vitro ADME. The settings on record: peptide 9 μM, 60 min; for remaining at 1 h, 9 μM: human, HEK293 cells in culture, HEK293 cells 20,000 cells/well, Opti-MEM reduced serum media, mean ± SEM, read-out: amount remaining in the medium of HEK293 cells at T60 min compared with T0 min. On the procedure:
HEK293 (passage 24) were seeded into tissue-culture-grade 96-well plates at a density of 20,000 cells/well. After 24 h, cells were washed with PBS and replaced with Opti-MEM reduced serum media containing amidated or non-amidated 2A (9 μM). Aliquots of equal volume were taken at T = 0 and 60 min. Amidated 2A was added to control wells having media (no cells) only. Samples were immediately acidified in 0.1% TFA, snap frozen in dry ice and stored in −80 °C until analyzed by LCMS.
Samples were analyzed by LC-MS/MS on a Shimadzu Nexera uHPLC (Japan) coupled to a Triple Tof 5600 mass spectrometer (ABSCIEX, Canada) equipped with a duo electrospray ion source. One μl of each extract was injected onto a 2.1 mm × 100 mm Zorbax C18 1.8um column (Agilent) at 200 μL/min. Linear gradients of 1–50% solvent B over 7 min at 200 μL/min flow rate, followed by a steeper gradient from 50% to 98% solvent B in 1 min were used for peptide elution. Solvent B was held at 98% for 3 min for washing the column and returned to 1% solvent B for equilibration prior to the next sample injection. Solvent A consisted of 0.1% formic acid (aq) and solvent B contained 90/10 acetonitrile/ 0.1% formic acid (aq). The ionspray voltage was set to 5500 V, declustering potential (DP) 100 V, curtain gas flow 25, nebuliser gas 1 (GS1) 50, GS2 to 60, interface heater at 150 °C and the turbo heater to 500 °C. The mass spectrometer acquired 500ms full scan high resolution, at 30,000 resolving power, TOF-MS data over the mass range […].
Both amidated and non amidated 2A were quantified using the [M+2H]^2+ doubly charged molecular ion from m/z 575.32 to 575.37.
The data was acquired using Analyst TF 1.6 and quantification was carried out using MultiQuant 2.1.1 software (ABSCIEX, Canada).

The nature of series [4]: Streptozotocin (STZ) model of type 1 diabetes in mice. The class given is in vivo, C57Bl/6J mice. On the procedure: Streptozotocin (STZ; 150 mg/kg; i.p) was used to induce type 1 diabetes in male C57BI/6J mice. Blood glucose was measured 1 week post STZ injection to confirm the presence of diabetes (BG levels > 15 mmol/L at 1 week post STZ injection was included in this study). After establishment of diabetes (T0), mice were randomly allocated to receive 2A (1 mg/kg/ day; 10% DMSO in saline) or vehicle (10% DMSO in saline) via subcutaneous minipumps for a period 3 months. Non fasting blood glucose levels were measured every 2 weeks until study end (T3), and body weight was measured daily, until study end. 24-h urine samples were collected at 1 month intervals since commencement of 2A or its vehicle. (Detailed Methods section is provided at the end of the Discussion).
Streptozotocin (STZ) is a widely used model of type I diabetes which closely mimic the human disease[31],[32]. Male C57Bl/6J mice were purchased from Animal Resources Centre (Western Australia, Australia) and these mice were acclimatized for at least one week prior to inducing diabetes. […] Mouse body weight was measured daily. Blood glucose levels were measured via tail bleed 1-week post-STZ injection to confirm the establishment of diabetes (CareSens N; iSENS, Seoul, Korea). […] Blood glucose levels were measured every 2 weeks until the end of the treatment period. […]

The nature of series [5]: Pharmacokinetics and tissue distribution of 2A in normal mice. Conditions: LC-MS/MS.
Description: Wild-type C57BL/6J mice (male, 10–12 weeks old) were purchased from the Animal Resources Centre (Western Australia, Australia). All animals were housed within the University of Queensland Biological Resources animal facility in a pathogen-free environment with a 12 h dark/12 h light cycle and free access to food and water.
The pharmacokinetic (PK) profile and biodistribution of 2A peptide was assessed in mice (n=5; per route at a dose of 1 mg/kg) after intravenous (i.v; tail vein), subcutaneous (s.c; between the shoulders) and intranasal (i.n; 10μl in each nostril with total volume of 20μl) administration. Blood samples were collected at 10, 20, 30, 45, 60 mins, 2 h and 4 h after drug administration via the tail vein using a microsampling technique[27]. At the terminal time point (24 h post administration), animals were anaesthetised with zolazepam (50 mg/kg) and xylazine (12 mg/kg) via i.p. injection. Blood samples were then collected via cardiac puncture as well as tail bleed to validate the sampling protocol. Plasma was isolated from blood samples by centrifugation (2000 g for 10 min at 4 °C), and stored at −80 °C. Following blood collection at the termination time point, mice were immediately perfused transcardially with saline to remove blood from tissues. Harvested tissue samples were then weighed and homogenized in an equal weight volume of milliQ water. On the day of analysis, aliquots (5 μL) of thawed plasma samples and 100μL of tissue homogenates were mixed with internal standard (10 μL) and processed for peptide quantification using a semi-validated LC–MS/MS method as described previously[28].
Quantification of 2A peptide was performed using AcF-[OPdChaWR] peptide as an internal standard as described previously[28]. […] Concentrations of 2A peptide in samples was measured against known concentration of internal standard and peak area ratio of analyte to internal standard. […]
The next series relates to SARS-CoV-2. The class given is cell-based. The settings on record: 350 μM, pre-treated apically and basolaterally 1 h, then added every 12 h for 48 h; MOI 3; n=3 donors; versus PBS.

T1 sequence (Q9BYF1 18-805): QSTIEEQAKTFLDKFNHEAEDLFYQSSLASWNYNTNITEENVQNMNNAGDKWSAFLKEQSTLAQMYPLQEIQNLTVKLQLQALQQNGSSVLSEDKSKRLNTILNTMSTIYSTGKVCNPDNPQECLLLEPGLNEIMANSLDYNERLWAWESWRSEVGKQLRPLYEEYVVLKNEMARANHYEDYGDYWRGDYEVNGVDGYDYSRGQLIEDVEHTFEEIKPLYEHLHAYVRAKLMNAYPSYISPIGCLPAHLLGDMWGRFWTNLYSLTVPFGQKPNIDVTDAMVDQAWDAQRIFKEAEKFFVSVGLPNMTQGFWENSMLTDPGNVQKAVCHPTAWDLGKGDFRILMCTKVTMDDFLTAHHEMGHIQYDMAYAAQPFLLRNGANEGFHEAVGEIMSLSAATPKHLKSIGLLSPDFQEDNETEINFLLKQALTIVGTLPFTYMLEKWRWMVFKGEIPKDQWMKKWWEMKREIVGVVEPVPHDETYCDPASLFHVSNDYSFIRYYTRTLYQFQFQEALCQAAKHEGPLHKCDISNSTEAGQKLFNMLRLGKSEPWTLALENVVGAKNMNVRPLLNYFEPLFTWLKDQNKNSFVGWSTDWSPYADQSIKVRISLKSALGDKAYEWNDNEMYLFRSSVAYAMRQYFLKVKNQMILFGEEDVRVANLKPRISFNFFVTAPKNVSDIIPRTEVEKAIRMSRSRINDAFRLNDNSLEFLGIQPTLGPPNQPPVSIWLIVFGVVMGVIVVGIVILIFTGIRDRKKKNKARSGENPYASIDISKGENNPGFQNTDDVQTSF

Consider “20 amino acid peptide: synthetic peptide corresponding to the first 20 amino acids of Bothrops asper myotoxin II”, for which the “effect on recombinant human ACE2 enzyme activity” value in the series with rhACE2 [1] is “stimulates recombinant human ACE2 enzyme activity”.
With `CC[C@H](C)[C@H](NC(=O)[C@H](CCSC)NC(=O)[C@H](CCCCN)NC(=O)CNC(=O)[C@H](CC(C)C)NC(=O)[C@H](CCC(=O)O)NC(=O)[C@H](Cc1ccccc1)NC(=O)[C@H](CC(C)C)NC(=O)[C@@H](N)CO)C(=O)N[C@@H](CC(C)C)C(N)=O` [2A] (H-SLFELGKMIL-NH2), the “increase of Ang 1-7 levels in the presence of ACE2 + 2A compared to ACE2 alone” value at rhACE2 [2] is on record as 165 ± 12%. Also, at rhACE2 [2] (over a 24-h period, ACE2 alone 58 ± 4%), the “reduction of Ang II levels in the presence of ACE2 + 2A” value came out at 83 ± 5%. In series [3], the amount remaining at 1 h, 9 μM was 54 ± 4%. In addition, in series [3] (media only (no cells), Opti-MEM, possible adherence to plastic), the “amount remaining in the cell culture medium in the absence of cells at T60 min” value came out at 63 ± 14%. Besides, in series [4] (2A 1 mg/kg/day, 3 months), the “effects on organ weight” value is given as “minimal effects”. For the same compound, the “untoward effects in animal models” value in series [4] (pre-clinical animal models of this paper) is given as “did not observe any untoward effects”. For the same compound, in series [5] (1 mg/kg i.v., s.c. or i.n., C57BL/6J mice, n=5 per route), the “detection in plasma 24 h post administration” value is “a small amount of peptide was still detected”. The “clearance from the circulation” value in series [5] (1 mg/kg i.v., s.c. or i.n., C57BL/6J mice, plasma, n=5 per route) is “rapidly cleared from the circulation over the first 4h”. Also, the “tissue distribution 24-h post administration (heart, lung, spleen, kidney, brain and spinal cord)” value in series [5] (1 mg/kg, irrespective of the route (i.v., s.c., i.n.), tissue homogenates) is listed as “detectable at low concentrations”.
`N=C(N)c1ccc(/N=N/Nc2ccc(C(=N)N)cc2)cc1` [DIZE, diminazene]: in the series on SARS-CoV-2, the “viral titres produced by epithelial cells at 48 hours post-infection” value is “not significantly different”.
`CC[C@H](C)[C@H](NC(=O)[C@H](CCSC)NC(=O)[C@H](CCCCN)NC(=O)CNC(=O)[C@H](CC(C)C)NC(=O)[C@H](CCC(=O)O)NC(=O)[C@H](Cc1ccccc1)NC(=O)[C@H](CC(C)C)NC(=O)[C@@H](N)CO)C(=O)N[C@@H](CC(C)C)C(=O)O` [non-amidated 2A] (H-SLFELGKMIL-OH; N-terminus assumed): in series [3], the share remaining at 1 h, 9 μM was 29 ± 3%.
